US20220111034A1, “VIRUS COMPOSITIONS” (priority 2019, published 2022)

Legend:
[1] = system: JAM-A; test: FD-based AFM single-virus force spectroscopy on JAM-A-coated model surfaces; format: binding; settings: for change in JAM-A-T3SA− binding or multivalent interactions: 1 mM glycan injected, FIG. 6a-c
Procedure: NHS-PEG27-acetal linkers were used to functionalize AFM tips as described (Gruber. Crosslinkers and Protocols for AFM Tip Functionalization. https://wwwjku.at/institut-fuer-biophysik/forschung/linked, 2018; Wildling et al. Linking of sensor molecules with amino groups to aminofunctionalized AFM tips. Bioconjug. Chem. 2011, vol. 22, 1239-1248). AFM tips (PFQNM-LC and MSCT probes, Bruker) were immersed in chloroform for 10 min, rinsed with ethanol, dried with a stream of filtered nitrogen, cleaned for 10 min using an ultraviolet radiation and ozone (UV-0) cleaner (Jetlight), and immersed overnight in an ethanolamine solution (3.3 g of ethanolamine hydrochloride in 6.6 mL of DMSO). The cantilevers were washed three times with DMSO, and two times with ethanol and dried with nitrogen. To ensure a low grafting density of the linker on the AFM tip, 1 mg of acetal-PEG27-NHS was diluted in 0.5 mL of chloroform with 30 μL of […] (Gruber, supra; Wildling et al., supra). Ethanolamine-coated cantilevers were immersed for 2 h in this solution, washed three times with chloroform, and dried with nitrogen. Cantilevers were then immersed for 10 min in 1% citric acid in milliQ water, washed three times with milliQ water, and dried with nitrogen. Virus solution (80 μL at ˜10^8 to 10^9 particles mL^−1) was pipetted onto the tips placed on Parafilm (Bemis NA) in a small plastic dish stored within an icebox. A freshly prepared solution of NaCNBH3 (2 μL at ˜6% wt. in 0.1 M NaOH(aq)) was gently mixed into the virus solution, and the cantilever chips were gently positioned with the cantilevers extending into the virus drop. The icebox was incubated at 4° C. for 1 h. Then, 5 μL of 1 M ethanolamine solution (pH 8) was gently mixed into the drop to quench the reaction. […]
His6-tagged JAM-A (Bio-Connect Life Science) was immobilized using NTA-His6 binding chemistry, as described (Dupres et al. 2005, supra; Dufrêne. Life at the nanoscale: atomic force microscopy of live cells. Pan Stanford Publishing, 2011). […] The thickness was measured as described for sialic-acid-coated model surfaces.
AFM Nanoscope Multimode 8 (Bruker) was used (Nanoscope software v9.1) to conduct FD-based AFM. Virus-functionalized MSCT-D probes (with spring constants calculated using thermal tune, ranging from 0.024 to 0.043 N m^−1) (Butt & Jaschke. Calculation of thermal noise in atomic-force microscopy. Nanotechnol. 1995, vol. 6, 1-7) were used to record force curves from 5×5 μm arrays in the force-volume (contact) mode. […]

[2] = system: CHO cells; test: FD-based AFM with virus-functionalized tip on living CHO cells (cocultured with Lec2); format: cell-based; settings: 1 mM, same area rescanned, FIG. 14i-l
Procedure: NHS-PEG27-acetal linkers were used to functionalize AFM tips as described (Gruber. Crosslinkers and Protocols for AFM Tip Functionalization. https://wwwjku.at/institut-fuer-biophysik/forschung/linked, 2018; Wildling et al. Linking of sensor molecules with amino groups to aminofunctionalized AFM tips. Bioconjug. Chem. 2011, vol. 22, 1239-1248). AFM tips (PFQNM-LC and MSCT probes, Bruker) were immersed in chloroform for 10 min, rinsed with ethanol, dried with a stream of filtered nitrogen, cleaned for 10 min using an ultraviolet radiation and ozone (UV-0) cleaner (Jetlight), and immersed overnight in an ethanolamine solution (3.3 g of ethanolamine hydrochloride in 6.6 mL of DMSO). […]
Correlative images were acquired on an AFM (Bioscope Catalyst and Bioscope Resolve, Bruker) operated in the PeakForce QNM mode (Nanoscope software v9.2) to conduct FD-based AFM and coupled to an inverted epifluorescence microscope (Zeiss Observer Z.1) as described (Newton et al. 2017, supra; Knoops et al. Specific Interactions Measured by AFM on Living Cells between Peroxiredoxin-5 and TLR4: Relevance for Mechanisms of Innate Immunity. Cell chemical biology 2018, vol. 25, 550-559, e553). […] Overview images of cell surfaces (20-30 μm^2) were recorded at imaging forces of ˜500 pN using PFQNM-LC probes (Bruker) having tip lengths of 17 μm, tip radii of 65 nm, and opening angles of 15°. […]

[3] = system: JAM-A; test: Biolayer interferometry (BLI) of JAM-A-reovirus interactions; format: binding; settings: 1 mM free glycan
Procedure: Virus binding to JAM-A was measured on a BLItz® (Pall ForteBio) biolayer interferometer equipped with a Ni2+-NTA biosensor (Pall ForteBio). After loading the chip in a 10 mM NiCl2 solution for 2 min and running an initial baseline step in milliQ water (1 min), JAM-A (0.2 mg mL^−1) was immobilized on the exposed Ni^2+ ions via its C-terminal His6 tag for 5 min until the binding signal reached a plateau (complete saturation of the biosensor). Binding of viral particles (T3SA+, T3SA− or ISVP; at 16 nM) in the absence or presence of 1 mM Neu5Ac was measured during a 10 min association step after another baseline step (virus buffer for 1 min). Dissociation was monitored directly after the association step for 10 min during which the virus solution was exchanged with virus buffer. Chip can be regenerated several times by exposing the biosensor to 10 mM Glycine pH 1.7 followed by a neutralization buffer (Kinetics Buffer). The resulting sensorgram (binding over time) was processed and fitted with a nonlinear regression approach using an association and then dissociation fit provided by GraphPad Prism. Virus concentration and time at which dissociation was initiated were constrained to constant values of 16 nM and 17 min, respectively. From that fit, koff and kon were extracted and KD was calculated.

CC(=O)N[C@H]1[C@H](O[C@H]2[C@@H](O)[C@@H](CO)O[C@@H](O[C@H]3[C@H](O)[C@@H](O)C(O)O[C@@H]3CO)[C@@H]2O)O[C@H](CO)[C@@H](O[C@@H]2O[C@H](CO)[C@H](O)[C@H](O)[C@H]2O)[C@@H]1O (mixture of isomers) [LNnT, lacto-N-neotetraose, reference compound]
effect on the overall binding of T3SA+ to JAM-A ([1]; 1 mM glycan, FIG. 5d): had no effect

CC(=O)N[C@H]1[C@H]([C@H](O)[C@H](O)CO)OC(O)(C(=O)O)C[C@@H]1O (stereo partly drawn) [Neu5Ac, N-acetylneuraminic acid]
adhesion events of T3SA+ after injection of blocking glycan [2]: significant reduction of adhesion events | change in T3SA+ISVP-JAM-A multivalent binding behavior ([1]; 1 mM free glycan, FIG. 16): does not induce any change | change in JAM-A-T3SA− binding or multivalent interactions [1]: does not induce any change | influence on T3SA− binding to JAM-A [3]: had no influence

sialyl-lacto-N-tetraose a [LSTa]
change in JAM-A-T3SA− binding or multivalent interactions [1]: does not induce any change
